# Laboratory results published in PubChem BioAssay (NCI).
#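 Results reflect a 48-hour exposure of cells in 96-well plates to compound at five concentrations. The concentration for 50% growth inhibition is given as GI50. The concentration for full growth arrest is given as TGI.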
# Legend:
# Test in all cases: growth of human tumour cells (NCI), 48 h
# SNB-75 CNS = tested on: SNB-75 CNS
# NCI-H23 lung = tested on: NCI-H23 lung
# SF-268 CNS = tested on: SF-268 CNS
# SK-MEL-2 melanoma = tested on: SK-MEL-2 melanoma
# TK-10 renal = tested on: TK-10 renal
# A549 NSCLC = tested on: A549 NSCLC
# BT-549 breast = tested on: BT-549 breast
# OVCAR-4 ovarian = tested on: OVCAR-4 ovarian
# MOLT-4 leukemia = tested on: MOLT-4 leukemia
# M14 melanoma = tested on: M14 melanoma
# HL-60(TB) leukemia = tested on: HL-60(TB) leukemia
# UO-31 renal = tested on: UO-31 renal
# NCI-H460 lung = tested on: NCI-H460 lung
# HCT-116 colon = tested on: HCT-116 colon
# MDA-MB-231 breast = tested on: MDA-MB-231 breast
# OVCAR-5 ovarian = tested on: OVCAR-5 ovarian
# IGROV1 ovarian = tested on: IGROV1 ovarian
# HS 578T breast = tested on: HS 578T breast
# NCI/ADR-RES ovarian = tested on: NCI/ADR-RES ovarian
# RPMI-8226 leukemia = tested on: RPMI-8226 leukemia
# OVCAR-3 ovarian = tested on: OVCAR-3 ovarian
# MDA-MB-468 breast = tested on: MDA-MB-468 breast
# MDA-MB-435 = tested on: MDA-MB-435
# UACC-257 melanoma = tested on: UACC-257 melanoma
# SK-OV-3 ovarian = tested on: SK-OV-3 ovarian
# HT29 colon = tested on: HT29 colon
# ACHN renal = tested on: ACHN renal
# EKVX NSCLC = tested on: EKVX NSCLC
# HOP-92 NSCLC = tested on: HOP-92 NSCLC
# SN12C renal = tested on: SN12C renal
# CAKI-1 renal = tested on: CAKI-1 renal
# NCI-H226 lung = tested on: NCI-H226 lung
# T-47D breast = tested on: T-47D breast
# DU-145 prostate = tested on: DU-145 prostate
# HCC-2998 colon = tested on: HCC-2998 colon
# SR leukemia = tested on: SR leukemia
# MCF7 breast = tested on: MCF7 breast
# PC-3 prostate = tested on: PC-3 prostate
# SK-MEL-5 melanoma = tested on: SK-MEL-5 melanoma
# HCT-15 colon = tested on: HCT-15 colon
# SW-620 colon = tested on: SW-620 colon
# UACC-62 melanoma = tested on: UACC-62 melanoma
# COLO 205 colon = tested on: COLO 205 colon
# MALME-3M melanoma = tested on: MALME-3M melanoma
# SK-MEL-28 melanoma = tested on: SK-MEL-28 melanoma
# 786-0 renal = tested on: 786-0 renal
# OVCAR-8 ovarian = tested on: OVCAR-8 ovarian
# K-562 leukemia = tested on: K-562 leukemia
# HOP-62 NSCLC = tested on: HOP-62 NSCLC
# SNB-19 CNS = tested on: SNB-19 CNS
# NCI-H522 lung = tested on: NCI-H522 lung
# U251 CNS = tested on: U251 CNS
# SF-295 CNS = tested on: SF-295 CNS
# KM12 colon = tested on: KM12 colon
# A498 renal = tested on: A498 renal
# RXF 393 renal = tested on: RXF 393 renal
# SF-539 CNS = tested on: SF-539 CNS
# LOX IMVI melanoma = tested on: LOX IMVI melanoma
compound,measurement,setting,value
CN1CCN(c2ccc(Nc3nc(NCCNC(=O)c4ccc(C(F)(F)F)cc4)c4sccc4n3)cc2)CC1,GI50,SNB-75 CNS,6.55 µM
same,TGI,SNB-75 CNS,20.7 µM
same,GI50,NCI-H23 lung,14.6 µM
same,TGI,NCI-H23 lung,29.6 µM
same,GI50,SF-268 CNS,11.1 µM
same,TGI,SF-268 CNS,31.4 µM
same,GI50,SK-MEL-2 melanoma,15.7 µM
same,TGI,SK-MEL-2 melanoma,29.7 µM
same,GI50,TK-10 renal,16.6 µM
same,TGI,TK-10 renal,30.8 µM
same,GI50,A549 NSCLC,11.7 µM
same,TGI,A549 NSCLC,30.8 µM
same,GI50,BT-549 breast,12.3 µM
same,TGI,BT-549 breast,25.1 µM
same,GI50,OVCAR-4 ovarian,13.6 µM
same,TGI,OVCAR-4 ovarian,48.1 µM
same,GI50,MOLT-4 leukemia,3.64 µM
same,TGI,MOLT-4 leukemia,16.5 µM
same,GI50,M14 melanoma,1.88 µM
same,TGI,M14 melanoma,3.63 µM
same,GI50,HL-60(TB) leukemia,3.49 µM
same,TGI,HL-60(TB) leukemia,15.8 µM
same,GI50,UO-31 renal,11.8 µM
same,TGI,UO-31 renal,24.1 µM
same,GI50,NCI-H460 lung,13.3 µM
same,TGI,NCI-H460 lung,28.7 µM
same,GI50,HCT-116 colon,4.25 µM
same,TGI,HCT-116 colon,15.2 µM
same,GI50,MDA-MB-231 breast,3.72 µM
same,TGI,MDA-MB-231 breast,14.4 µM
same,GI50,OVCAR-5 ovarian,15.1 µM
same,TGI,OVCAR-5 ovarian,30.5 µM
same,GI50,IGROV1 ovarian,12.9 µM
same,TGI,IGROV1 ovarian,26 µM
same,GI50,HS 578T breast,4.19 µM
same,TGI,HS 578T breast,23.2 µM
same,GI50,NCI/ADR-RES ovarian,16.1 µM
same,TGI,NCI/ADR-RES ovarian,39.5 µM
same,GI50,RPMI-8226 leukemia,1.88 µM
same,TGI,RPMI-8226 leukemia,4.54 µM
same,GI50,OVCAR-3 ovarian,14.4 µM
same,TGI,OVCAR-3 ovarian,32 µM
same,GI50,MDA-MB-468 breast,2.26 µM
same,TGI,MDA-MB-468 breast,9.44 µM
same,GI50,MDA-MB-435,3.5 µM
same,TGI,MDA-MB-435,11 µM
same,GI50,UACC-257 melanoma,1.75 µM
same,TGI,UACC-257 melanoma,3.39 µM
same,GI50,SK-OV-3 ovarian,17.3 µM
same,TGI,SK-OV-3 ovarian,33.4 µM
same,GI50,HT29 colon,3.53 µM
same,TGI,HT29 colon,12.6 µM
same,GI50,ACHN renal,13.4 µM
same,TGI,ACHN renal,27.9 µM
same,GI50,EKVX NSCLC,13.9 µM
same,TGI,EKVX NSCLC,29.2 µM
same,GI50,HOP-92 NSCLC,4.66 µM
same,TGI,HOP-92 NSCLC,18.9 µM
same,GI50,SN12C renal,12.9 µM
same,TGI,SN12C renal,25.7 µM
same,GI50,CAKI-1 renal,9.24 µM
same,TGI,CAKI-1 renal,21.7 µM
same,GI50,NCI-H226 lung,14 µM
same,TGI,NCI-H226 lung,29.8 µM
same,GI50,T-47D breast,10.8 µM
same,TGI,T-47D breast,31.1 µM
same,GI50,DU-145 prostate,14.2 µM
same,TGI,DU-145 prostate,27.9 µM
same,GI50,HCC-2998 colon,4.55 µM
same,TGI,HCC-2998 colon,15.5 µM
same,GI50,SR leukemia,1.9 µM
same,TGI,SR leukemia,5.21 µM
same,GI50,MCF7 breast,4.06 µM
same,TGI,MCF7 breast,15.7 µM
same,GI50,PC-3 prostate,10.4 µM
same,TGI,PC-3 prostate,26.9 µM
same,GI50,SK-MEL-5 melanoma,2.3 µM
same,TGI,SK-MEL-5 melanoma,5.99 µM
same,GI50,HCT-15 colon,3.33 µM
same,TGI,HCT-15 colon,13.9 µM
same,GI50,SW-620 colon,12.7 µM
same,TGI,SW-620 colon,26.4 µM
same,GI50,UACC-62 melanoma,2.01 µM
same,TGI,UACC-62 melanoma,4.79 µM
same,GI50,COLO 205 colon,7.4 µM
same,TGI,COLO 205 colon,22.6 µM
same,GI50,MALME-3M melanoma,1.77 µM
same,TGI,MALME-3M melanoma,3.16 µM
same,GI50,SK-MEL-28 melanoma,2.13 µM
same,TGI,SK-MEL-28 melanoma,3.99 µM
same,GI50,786-0 renal,3.24 µM
same,TGI,786-0 renal,13.1 µM
same,GI50,OVCAR-8 ovarian,10.8 µM
same,TGI,OVCAR-8 ovarian,28 µM
same,GI50,K-562 leukemia,2.24 µM
same,TGI,K-562 leukemia,8.8 µM
same,GI50,HOP-62 NSCLC,15.1 µM
same,TGI,HOP-62 NSCLC,30.7 µM
same,GI50,SNB-19 CNS,14.2 µM
same,TGI,SNB-19 CNS,27.5 µM
same,GI50,NCI-H522 lung,4.21 µM
same,TGI,NCI-H522 lung,16.7 µM
same,GI50,U251 CNS,3.54 µM
same,TGI,U251 CNS,13.8 µM
same,GI50,SF-295 CNS,3.52 µM
same,TGI,SF-295 CNS,13.6 µM
same,GI50,KM12 colon,14 µM
same,TGI,KM12 colon,30.8 µM
same,GI50,A498 renal,17.1 µM
same,TGI,A498 renal,31 µM
same,GI50,RXF 393 renal,2.67 µM
same,TGI,RXF 393 renal,10.3 µM
same,GI50,SF-539 CNS,2.12 µM
same,TGI,SF-539 CNS,4.6 µM
same,GI50,LOX IMVI melanoma,2.66 µM
same,TGI,LOX IMVI melanoma,8.84 µM
